Source: publication PMC12254266, “Multicolored sequential resonance energy transfer for detection of simultaneous ligand binding at G protein-coupled receptors” (Nature Communications, 2025)
Where “and” joins values, the source holds several entries; their conditions need not be identical. Identical values can stand only once. Like-named read-outs stand apart in the source and are kept apart here.

Legend:
FFA1-Nluc [1] = molecular target: T1, FFA1-Nluc (Homo sapiens, UniProt O14842); assay: DISCo-BRET (endpoint, spectra scan, kinetics) with TUG-2591 and TUG-2597 at C terminal Nluc tagged FFA1; assay type: binding; parameters: expressed in transfected cells; settings: for Specific BRET (690/450): Sup Fig 3Bi
In short: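 After Nano-Glo substrate (1:800 final), ligand-treated FFA1-Nluc or Nluc-FFA1 cells, doxycycline-induced (100 ng/mL), were read. Kinetic association/dissociation runs were at 25 °C; endpoint and 440–740 nm spectra came after 5 min at 37 °C. Non-specific signal came from competing ligands at high concentration.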

FFA1 = FFA1 (Homo sapiens, UniProt O14842); assay: NanoBiT arrestin-3 recruitment in HEK293T cells; assay type: cell-based; parameters: expressed in transfected cells; host or cells: HEK293T, transient; settings: ± SEM
Description: For arrestin-3 recruitment assays, HEK293T cells were transfected with FFA1 receptor and a bystander NanoBiT split luciferase arrestin-3 recruitment biosensor. Cells were transfected and plated simultaneously in a reverse transfection protocol into a poly-D-lysine coated white 96-well plate. Per well, 60,000 cells were transfected with 5 ng plasmid expressing LgBiT with a N-terminal Lyn11 plasma membrane localisation tag, 5 ng plasmid expressing bovine arrestin-3 fused at its N-terminal to SmBiT tag and 30 ng plasmid expressing the human FFA1 receptor. Total DNA was made up to 100 ng total/well with empty pcDNA3 vector and transfected to cell suspension with 0.6 µg/well PEI. Following transfection cells were cultured for 24 h before use. On the day of assay, cells were washed twice with HBSS and incubated in HBSS for 30 min at 37 °C. NanoGlo substrate was added at a final 1:800 dilution and incubated in the dark for 10 min at 37 °C. […] Raw luminescence values were divided by baseline signal (average of first 5 data points prior to compound addition) and vehicle measurements subtracted from agonist treatment. Area under curves were calculated and concentration response curves plotted.

FFA1-Nluc [2] = molecular target: T1, FFA1-Nluc; assay: Bystander BRET internalisation assay, FFA1-Nluc in HEK293T cells; assay type: cell-based; parameters: expressed in transfected cells; host or cells: HEK293T (ATCC, CRL-3216), transient; settings: in words; up to 60 min
Description: Cells were transfected using a reverse transfection protocol while plating into a poly-D-lysine coated white 96-well plates. Cells were plated at 60,000 cells with 100 ng of plasmid DNA and 0.6 µg of polyethyleneimine (PEI) per well. Cells were cultured for 24 h before washing with HBSS and incubating in HBSS at 37 °C for 30 min. NanoGlo substrate was added a final 1:800 dilution and plates incubated for 10 min at 37 °C. […] After 5 min of baseline measurements, readings were paused and test compounds added to the plate.

[3] = TUG-2597 […] first, then increasing TUG-2591 (Fig. 6H)

T1 sequence (O14842 whole entry): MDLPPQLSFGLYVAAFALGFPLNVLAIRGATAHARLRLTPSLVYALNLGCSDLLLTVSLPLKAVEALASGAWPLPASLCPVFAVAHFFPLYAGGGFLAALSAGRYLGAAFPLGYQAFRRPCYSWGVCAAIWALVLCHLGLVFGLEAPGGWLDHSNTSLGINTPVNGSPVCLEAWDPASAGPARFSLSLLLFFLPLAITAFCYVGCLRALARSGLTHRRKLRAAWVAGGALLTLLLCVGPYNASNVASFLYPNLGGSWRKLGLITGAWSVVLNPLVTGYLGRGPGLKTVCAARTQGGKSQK
FFA1, sequence (O14842 whole entry, the tested form may be a part): as the sequence (O14842 whole entry) above

Cc1cc(OCCCNC(=O)CCCN2\C(=C/C=C/C=C/C3=[N+](C)c4ccc(S(=O)(=O)[O-])cc4C3(C)C)C(C)(C)c3ccccc32)ccc1-c1cccc(COc2ccc(CCC(=O)O)c(F)c2)c1 [TUG-2591]
Specific BRET (540/450) (FFA1-Nluc [1]; 10 nM TUG-2591, + TUG-2597): 0.2063 and 0.1967 and 0.1514 and 0.1434 and 0.1849 and 0.1798 | Kd (FFA1-Nluc [1]; FFA1-Nluc, […] TUG-2597, read-out: Kd, DISCo-BRET saturation SulfoCy5/NBD (Sup Fig 3Biii)): 64 nM | Kd (FFA1-Nluc [1]; FFA1-Nluc, […] TUG-2597, read-out: Kd, DISCo-BRET saturation SulfoCy5/NBD (Sup Fig 3Ciii)): 140 nM | Kd (FFA1-Nluc [1]; FFA1-Nluc, […] TUG-2597, read-out: Kd, DISCo-BRET saturation SulfoCy5/Nluc (Sup Fig 3Bi)): 57 nM | Kd (FFA1-Nluc [1]; FFA1-Nluc, […] TUG-2597, read-out: Kd, DISCo-BRET saturation SulfoCy5/Nluc (Sup Fig 3Ci)): 81 nM | Specific BRET (690/450) (FFA1-Nluc [1]; TUG-2591 56 nM, with TUG-2597): 0.0527 and 0.0499 and 0.0741 and 0.0890 and 0.0785 and 0.0761 and 0.0666 and 0.0608 | Specific BRET (690/450) (FFA1-Nluc [1]; TUG-2591 100 nM, with TUG-2597): 0.0715 and 0.0673 and 0.0821 and 0.0713 and 0.0718 and 0.0721 and 0.1131 and 0.1106 | Specific BRET (540/450) (FFA1-Nluc [1]; Sup Fig 3Bii, TUG-2591 10 nM, with TUG-2597 + TUG-905): 0.2427 and 0.2316 and 0.2211 and 0.2363 and 0.1842 and 0.1961 | Specific BRET (540/450) (FFA1-Nluc [1]; Sup Fig 3Bii, TUG-2591 56 nM, with TUG-2597): 0.1505 and 0.1512 and 0.1284 and 0.1402 and 0.0985 and 0.0926 | Specific BRET (540/450) (FFA1-Nluc [1]; Sup Fig 3Bii, TUG-2591 56 nM, with TUG-2597 + TUG-905): 0.1690 and 0.2045 and 0.2352 and 0.2122 and 0.1905 and 0.1776 | Specific BRET (540/450) (FFA1-Nluc [1]; Sup Fig 3Bii, TUG-2591 100 nM, with TUG-2597): 0.1528 and 0.1591 and 0.1221 and 0.0973 and 0.0962 and 0.0870 | Specific BRET (540/450) (FFA1-Nluc [1]; Sup Fig 3Bii, TUG-2591 100 nM, with TUG-2597 + TUG-905): 0.1931 and 0.1764 and 0.2349 and 0.2150 and 0.1675 and 0.1714 | Specific BRET (690/540) (FFA1-Nluc [1]; Sup Fig 3Biii, TUG-2591 56 nM, with TUG-2597): 0.0349 and 0.0333 and 0.0476 and 0.0572 and 0.0548 and 0.0534 and 0.0437 and 0.0392 | Specific BRET (690/540) (FFA1-Nluc [1]; Sup Fig 3Biii, TUG-2591 100 nM, with TUG-2597): 0.0480 and 0.0458 and 0.0524 and 0.0450 and 0.0542 and 0.0749 and 0.0751 | kOff DISCo-BRET SulfoCy5/NBD (FFA1-Nluc [1]; TUG-2591 100 nM + TUG-2597 […], displacing ligand TUG-905 10 μM): 0.0006 s⁻¹ | kOn DISCo-BRET Single Concentration (FFA1-Nluc [1]; TUG-2591 100 nM added after TUG-2597 […]): 20000 M⁻¹ s⁻¹ | Kd (FFA1-Nluc [1]; TUG-2591 added after TUG-2597, read-out: Kd DISCo-BRET Single Concentration (kinetic)): 91 nM | kOff DISCo-BRET Multiple Concentration (FFA1-Nluc [1]; [3]): 0.00183 s⁻¹ | kOn DISCo-BRET Multiple Concentration (FFA1-Nluc [1]; [3]): 8333.33 M⁻¹ s⁻¹ | Kd (FFA1-Nluc [1]; TUG-2597 […] first, then increasing TUG-2591 (Fig. 6H), read-out: Kd DISCo-BRET Multiple Concentration (kinetic)): 220 nM | Specific BRET (690/540) (FFA1-Nluc [1]; [TUG-2591] 100 nM, with TUG-2597): 0.0559 and 0.0537 and 0.05545 and 0.05225 and 0.03465 and 0.04165 | kOff DISCo-BRET Single Concentration (FFA1-Nluc [1]; based on the value calculated in the multiple ligand experiment in Fig. 6H): 0.00183 s⁻¹ | Kd (FFA1-Nluc [1]; in presence of […] TUG-2597, either construct, read-out: Kd, DISCo-BRET saturation (area under SulfoCy5 / NBD peaks)): 50 to 100 nM | kOff DISCo-BRET SulfoCy5/NBD (FFA1-Nluc [1]; tracers 1.0 μΜ / 3.16 μΜ, displacing ligand TUG-905 (30 μΜ)): 0.000533 s⁻¹ | EMax (% TUG-905) arrestin-3 recruitment (FFA1; percentage of the response to 10 μM TUG-905): 91 ± 6% | pEC50 arrestin-3 recruitment (FFA1; N=3): 7.5 ± 0.4 | internalization of FFA1-Nluc (FFA1-Nluc [2]): No internalization
